Source: PubChem BioAssay AID1117327 (Cheminformatics & Chemogenomics Research Group (CCRG), …, 2015)
Several values for one entry are separate records, joined by “and”; a condition that tells them apart may be missing. Equal entries are not always repeated. Activity calls are given as the source filed them. No rule for the calls is given here. Starred links: 1 amine or outer side, 2 acyl side, 3 side chain; linkers in the order of their positions; H or OH if unused. Positions of bridges follow the written chain, without caps; N, C: chain ends. Non-standard residues stand in square brackets, D forms with d. Residues, ends and D or L forms follow the SMILES beside them. Chains are numbered I, II in the order given. Actinocin(9to1) = Cc1c2oc3c(C)ccc(C(=O)[*:1])c3nc-2c(C(=O)[*:2])c(N)c1=O; NMeV = CN[C@H](C(=O)O)C(C)C; Sar = CNCC(=O)O

The compounds below were run on C2C12 + WNT3A conditioned medium, alkaline phosphatase (assay: alkaline phosphatase induction in C2C12 cells, dose response, cell-based, WNT3A-conditioned medium (AID 1117327)).

SMILES | IC50
O=C1C2CC=CCC2C(=O)N1SC(Cl)(Cl)Cl (centres undefined) | 511 nM
COc1cccc2c1C(=O)c1c(O)c3c(c(O)c1C2=O)C[C@@](O)(C(C)=O)C[C@@H]3O[C@H]1C[C@H](N)[C@H](O)[C@H](C)O1 | 6.1 nM
CC[C@]1(O)C[C@@H]2CN(CCc3c([nH]c4ccccc34)[C@@](C(=O)OC)(c3cc4c(cc3OC)N(C)[C@H]3[C@@](O)(C(=O)OC)[C@H](OC(C)=O)[C@]5(CC)C=CCN6CC[C@]43[C@@H]65)C2)C1 | > 20 µM (inactive) and 8.9 nM
CCCCCCCCCCCC(=O)[O][Sn]([CH2]CCC)([CH2]CCC)[O]C(=O)CCCCCCCCCCC | > 20000 nM (inactive)
COC(=O)Nc1nc2ccc(Sc3ccccc3)cc2[nH]1 | 438 nM
CC(C)(C)C(=O)OCOP(=O)(COCCn1cnc2c(N)ncnc21)OCOC(=O)C(C)(C)C | 387 nM
CCCCCCCCCCCCCC[N+](C)(C)C | > 20000 nM (inactive)
Cc1cc(=O)c2c(O)c3c(O)cc(=O)c4c3c3c(cc(O)c1c23)C(C)(C)C=4O | 2910 nM
CCCCCCCCCCOCC(O)CN (centres undefined) | > 20000 nM (inactive)
COc1cccc2c1C(=O)c1c(O)c3c(c(O)c1C2=O)C[C@@](O)(C(=O)CO)CC3OC1CC(N2CCOC(OC)C2)C(O)C(C)O1 (some centres undefined) | > 20000 nM (inactive)
CCN(CC)CCNc1ccc(CO)c2sc3ccccc3c(=O)c12 | 2670 nM
COC(=O)Nc1nc2ccc(C(=O)c3cccs3)cc2[nH]1 | 43.4 nM
COC(=O)[C@H]1[C@H]2C[C@@H]3c4[nH]c5cc(OC)ccc5c4CCN3C[C@H]2C[C@@H](OC(=O)/C=C/c2ccc(O)c(OC)c2)[C@@H]1OC | 10400 nM (inactive)
Cc1ccccc1C(=O)Nc1ccc(C(=O)N2CCCC(N(C)C)c3ccccc32)cc1 (centres undefined) | 9980 nM (inactive)
[O-][n+]1ccccc1SSc1cccc[n+]1[O-] | 131 nM
Nc1ccc2cc3ccc(N)cc3nc2c1 | > 20000 nM (inactive)
O=[N+]([O-])c1ccc(O)c2ncccc12 | 6360 nM (inactive)
Cc1cc(CC(C)CC(C)(C)C)n(O)c(=O)c1 (centres undefined) | > 20000 nM (inactive)
CC[C@@]1(O)C(=O)OCc2c1cc1n(c2=O)Cc2c-1nc1ccccc1c2/C=N/OC(C)(C)C | 3.2 nM
COc1cccc2c1C(=O)c1c(O)c3c(c(O)c1C2=O)C[C@@](O)(C(=O)CO)C[C@@H]3O[C@H]1C[C@H](N)[C@H](O[C@@H]2CCCCO2)[C@H](C)O1 | 3950 nM
CCc1nc(N)nc(N)c1-c1ccc(Cl)cc1 | 67.7 nM

SMILES | IC50
O=[N+]([O-])C(Br)(CO)CO | > 20000 nM (inactive)
CN(C)c1ccc(C(=C2C=CC(=[N+](C)C)C=C2)c2ccccc2)cc1 | 363 nM
C#C[C@]1(O)CC[C@H]2[C@@H]3CCc4cc(OC5CCCC5)ccc4[C@H]3CC[C@@]21C | > 20000 nM (inactive)
CCCCC1C(=O)N(c2ccccc2)N(c2ccc(O)cc2)C1=O (centres undefined) | 4920 nM
Cc1nc2ccc(CN(C)c3ccc(C(=O)N[C@@H](CCC(=O)O)C(=O)O)s3)cc2c(=O)[nH]1 | 4.2 nM
OCCN1CCN(CCCN2c3ccccc3Sc3ccc(Cl)cc32)CC1 | > 20000 nM (inactive)
CCCCCCCCCCCCCCC[C@H](O)[C@@H](N)CO | > 20000 nM (inactive)
COc1cc([C@@H]2c3cc4c(cc3[C@H](O)[C@H]3COC(=O)[C@H]23)OCO4)cc(OC)c1OC | 9.1 nM
COc1ccc2cc1Oc1ccc(cc1)C[C@H]1c3c(cc4c(c3Oc3cc5c(cc3OC)CCN(C)[C@@H]5C2)OCO4)CCN1C | 2050 nM
O=C1C(I)=CC(=C(c2cc(I)c(O)c(I)c2)c2ccccc2C(=O)O)C=C1I | > 20000 nM (inactive)
CCCN(CCC)C(=O)C(CCC(=O)OCCCN1CCN(CCOC(=O)Cc2c(C)n(C(=O)c3ccc(Cl)cc3)c3ccc(OC)cc23)CC1)NC(=O)c1ccccc1 (centres undefined) | 13200 nM (inactive)
C=C(C)[C@H]1Cc2c(ccc3c2O[C@@H]2COc4cc(OC)c(OC)cc4[C@@H]2C3=O)O1 | 254 nM
Cc1nc(N)nc(N)c1-c1ccc(Cl)c(Cl)c1 | 29.9 nM
CC(=O)Oc1ccc(C2(c3ccc(OC(C)=O)cc3)Oc3ccccc3NC2=O)cc1 | 14000 nM (inactive)
c1ccc2c(c1)Sc1ccccc1N2CC1CN2CCC1CC2 (centres undefined) | > 20000 nM (inactive)
CCC1=C[C@@H]2CN(C1)Cc1c([nH]c3ccccc13)[C@@](C(=O)OC)(c1cc3c(cc1OC)N(C)[C@H]1[C@@](O)(C(=O)OC)[C@H](OC(C)=O)[C@]4(CC)C=CCN5CC[C@]31[C@@H]54)C2 | 10.1 nM
CSc1ccc2c(c1)C(N1CCN(C)CC1)Cc1ccccc1S2 (centres undefined) | > 20000 nM (inactive)
O=C(Nc1ccc([N+](=O)[O-])cc1Cl)c1cc(Cl)ccc1O | > 20000 nM (inactive)
O=C(CCl)c1ccc(Cl)cc1Cl | > 20000 nM (inactive)
C[n+]1c2cc(N)ccc2cc2ccc(N)cc21 (tested in a mixture with another compound) | 1600 nM
Oc1c(I)cc(Cl)c2cccnc12 | 5400 nM (inactive)

SMILES | IC50
CC[C@]1(O)C[C@H]2CN(CCc3c([nH]c4ccccc34)[C@@](C(=O)OC)(c3cc4c(cc3OC)N(C=O)[C@H]3[C@@](O)(C(=O)OC)[C@H](OC(C)=O)[C@]5(CC)C=CCN6CC[C@]43[C@@H]65)C2)C1 | 5.1 nM
Cc1cc2c(C(C)C)c(O)c(O)c(C=O)c2c(O)c1-c1c(C)cc2c(C(C)C)c(O)c(O)c(C=O)c2c1O | > 20000 nM (inactive)
CN(C)C(=S)SSC(=S)N(C)C | > 20000 nM (inactive)
O=C1OC2(c3cc(Br)c(O)cc3Oc3c2cc(Br)c(O)[c]3[Hg])c2ccccc21 (centres undefined) | > 20000 nM (inactive)
CC[C@@]1(O)C(=O)OCc2c1cc1n(c2=O)Cc2cc3c(CN(C)C)c(O)ccc3nc2-1 | 17.9 nM
Cc1nc(Nc2ncc(C(=O)Nc3c(C)cccc3Cl)s2)cc(N2CCN(CCO)CC2)n1 | 6.7 nM
CN1CC[C@H](c2c(O)cc(O)c3c(=O)cc(-c4ccccc4Cl)oc23)[C@H](O)C1 | 461 nM
CCCCCCCCCCCCCC[N+](C)(C)Cc1ccccc1 | > 20000 nM (inactive)
O=C1c2c(O)ccc(O)c2C(=O)c2c(NCCNCCO)ccc(NCCNCCO)c21 | 1510 nM
O=c1c(-c2ccccc2)c1-c1ccccc1 | 3620 nM
O[C@@H](c1cc(C(F)(F)F)nc2c(C(F)(F)F)cccc12)[C@H]1CCCCN1 | > 20000 nM (inactive)
Cc1c2oc3c(C)ccc(C(=O)N[C@@H]4C(=O)N[C@H](C(C)C)C(=O)N5CCC[C@H]5C(=O)N(C)CC(=O)N(C)[C@@H](C(C)C)C(=O)O[C@@H]4C)c3nc-2c(C(=O)N[C@@H]2C(=O)N[C@H](C(C)C)C(=O)N3CCC[C@H]3C(=O)N(C)CC(=O)N(C)[C@@H](C(C)C)C(=O)O[C@@H]2C)c(N)c1=O (I: T[dV]P[Sar][NMeV] / II: T[dV]P[Sar][NMeV]; ester I:1-I:C, II:1-II:C; linker I:N-II:N via Actinocin(9to1)) | 1.5 nM
CC[C@@H]([C@H](C)O)n1ncn(-c2ccc(N3CCN(c4ccc(OC[C@@H]5CO[C@@](Cn6cncn6)(c6ccc(F)cc6F)C5)cc4)CC3)cc2)c1=O | 1630 nM
Cc1ccc([N+](=O)[O-])[c]2c1[O][Hg]2 | 155 nM
CCCSc1ccc2nc(NC(=O)OC)[nH]c2c1 | 12300 nM (inactive)
COc1cc(C=C2CCC/C(=C\c3ccc(O)c(OC)c3)C2=O)ccc1O | > 20000 nM (inactive)
CCCCCCCCCCCCNCCNCCNCC(=O)O | > 20000 nM (inactive)
CN(C)CCCN1c2ccccc2Sc2ccc(C(F)(F)F)cc21 | > 20000 nM (inactive)
C=CC(=O)Nc1cc2c(Nc3ccc(F)c(Cl)c3)ncnc2cc1OCCCN1CCOCC1 | 9460 nM (inactive)
COC(=O)c1nc(Cl)c(Cl)nc1N | 157 nM
CC(C)C[C@H](NC(=O)[C@H](CCc1ccccc1)NC(=O)CN1CCOCC1)C(=O)N[C@@H](Cc1ccccc1)C(=O)N[C@@H](CC(C)C)C(=O)[C@@]1(C)CO1 | 15.2 nM

SMILES | IC50
CCCCc1ccc2nc(NC(=O)OC)[nH]c2c1 | 68.2 nM
CN1C[C@H](CNC(=O)OCc2ccccc2)C[C@@H]2c3cccc4c3c(cn4C)C[C@H]21 | > 20000 nM (inactive)
Cc1cc(C2CCCCC2)n(O)c(=O)c1 | 1050 nM
Clc1cc(Cl)c(OCC#CI)cc1Cl | > 20000 nM (inactive)
Cc1ccc2nc(N)[nH]c(=O)c2c1Sc1ccncc1 | 244 nM
COC(=O)Nc1nc2ccc(S(=O)c3ccccc3)cc2[nH]1 (centres undefined) | 559 nM
C[C@@]12C(=O)OC(=O)[C@]1(C)C1CCC2O1 | 1490 nM
CCCOc1ccc2nc(NC(=O)OC)[nH]c2c1 | 88.1 nM
Oc1c(Cl)cc(Cl)cc1Sc1cc(Cl)cc(Cl)c1O | > 20000 nM (inactive)
COc1cc([C@@H]2c3cc4c(cc3[C@@H](O[C@@H]3O[C@@H]5CO[C@@H](C)O[C@@H]5[C@H](O)[C@@H]3O)[C@H]3COC(=O)[C@H]23)OCO4)cc(OC)c1O | > 20000 nM (inactive)
COCc1c(C(C)C)nc(C(C)C)c(/C=C/[C@@H](O)C[C@@H](O)CC(=O)O)c1-c1ccc(F)cc1 | > 20000 nM (inactive)
Cc1ccc2c(Br)cc(Br)c(O)c2n1 | > 20000 nM (inactive)
Cc1cc(O)c2ccccc2c1O | 1750 nM
CCCCCCNC(=O)n1cc(F)c(=O)[nH]c1=O | 5550 nM (inactive)
NC(N)=NN=C(/C=C/c1ccc([N+](=O)[O-])o1)/C=C/c1ccc([N+](=O)[O-])o1 | 372 nM
COc1cc(NCc2ccc3nc(N)nc(N)c3c2C)cc(OC)c1OC | > 20000 nM (inactive)
COC(=O)Nc1nc2ccc(C(=O)c3ccccc3)cc2[nH]1 | 245 nM
NC(=NCCCCCCN=C(N)/N=C(\N)Nc1ccc(Cl)cc1)/N=C(\N)Nc1ccc(Cl)cc1 | > 20000 nM (inactive)
CN(Cc1cnc2nc(N)nc(N)c2n1)c1ccc(C(=O)N[C@@H](CCC(=O)O)C(=O)O)cc1 | 11.6 nM
CC(=O)[C@]1(O)Cc2c(O)c3c(c(O)c2[C@@H](O[C@H]2C[C@H](N)[C@H](O)[C@H](C)O2)C1)C(=O)c1ccccc1C3=O | 504 nM
COC(=O)Nc1nc2ccc(C(=O)C3CC3)cc2[nH]1 | 684 nM
